From US12624023B2, “Sulfonylurea derivatives and uses thereof” (NodThera Limited, priority 2019, dated 2026)

Experiments:
[1] = system: IL-1β release upon NLRP3 activation in peripheral blood mononuclear cells (PBMC); assay: PBMC IC50 determination assay (IL-1β release, LPS priming + ATP stimulation, HTRF); format: cell-based; settings: PBMC from buffy coats; LPS 1 μg/ml 3 h, compound 30 min, ATP 5 mM 1 h; IL-1β by HTRF
Protocol: The compounds of the present disclosure were tested for their inhibitory activity against IL-1β release upon NLRP3 activation in peripheral blood mononuclear cells (PBMC).
PBMC were isolated from buffy coats by density gradient centrifugation on Histopaque-1077 (Sigma, cat no. 10771). Isolated cells were seeded into the wells (280,000 cells/well) of a 96-well plate and incubated for 3 h with lipopolysaccharide (LPS, 1 μg/ml diluted 1000× from a 1 mg/ml stock solution). The compounds of the present disclosure were added (a single compound per well) and the cells were incubated for 30 min. Next, the cells were stimulated with ATP (5 mM final concentration diluted 20× from a 100 mM stock solution) for 1 h and the cell culture media from the wells were collected for further analysis.
(§1) The release of IL-1β into the media was determined by quantitative detection of IL-1β in the media using HTRF®, CisBio cat. No. 62HIL1BPEH. Briefly, cell culture supernatant were dispensed directly into the assay plate containing antibodies labelled with the HTRF® donor and acceptor. A microplate spectrophotometer (BMG) was used to detect signals at 655 nm and 620 nm. The detection range of IL-1β HTRF® was 39-6500 μg/ml.

[2] = system: IL-1β release upon NLRP3 activation in human whole blood; assay: Whole blood (WB) assay (IL-1β release, LPS priming + ATP stimulation, HTRF); format: cell-based; settings: heparin, diluted 9:5 with media, LPS 1 μg/ml 3 h, compound 30 min, ATP 5 mM 1 h, IL-1β by HTRF
Protocol: The compounds of the present disclosure were tested for their inhibitory activity against IL-1β release upon NLRP3 activation in human whole blood.
Whole blood was drawn from single healthy donors and treated with sodium heparin anticoagulant. Blood was diluted with cell culture media at a 9:5 ratio, seeded in a 96-well plate and incubated for 3 h with lipopolysaccharide (LPS, 1 μg/ml final concentration diluted 1000× from a 1 mg/ml stock solution). The compounds of the present disclosure were added (a single compound concentration per well) and the blood was incubated for 30 min. Next, the blood was stimulated with ATP (5 mM final concentration diluted 20× from a 100 mM stock solution) for 1 h and the cell culture media from the wells were collected for further analysis.
as §1, with “were diluted as appropriate to bring IL-1β levels within the HTRF® detection range ([…]) and subsequently” for “were”, “dispensed” for “dispensed directly”, “nm.” for “nm. The detection range of IL-1β HTRF® was 39-6500 μg/ml.”

With `Cc1cc(NC(=O)NS(=O)(=O)N(c2cnn(C)c2)C2CCCN(C)C2)c(C)s1` (stereo not shown) [Compound 8, 3-(2,5-Dimethylthiophen-3-yl)-1-[(1-methyl-1H-pyrazol-4-yl)(1-methyl-piperidin-3-yl)sulfamoyl]urea] the IC50 [1] was 1000 to 5000 nM and the IC50 [2] was 1000 to 3000 nM.
Work on `Cc1csc(C)c1NC(=O)NS(=O)(=O)N(c1cnn(C)c1)C1CCCN(C)C1` (stereo not shown) [Compound 9, 3-(2,4-Dimethylthiophen-3-yl)-1-[(1-methyl-1H-pyrazol-4-yl)(1-methyl-piperidin-3-yl)sulfamoyl]urea] yielded an IC50 [1] of 1000 to 5000 nM and an IC50 [2] of 3000 to 10000 nM.
For `Cc1cc(C)c(NC(=O)NS(=O)(=O)N(c2cnn(C)c2)C2CCCN(C)C2)s1` (stereo not shown) [Compound 10, 3-(3,5-Dimethylthiophen-2-yl)-1-[(1-methyl-1H-pyrazol-4-yl)(1-methyl-piperidin-3-yl)sulfamoyl]urea], the IC50 [1] was 1000 to 5000 nM and the IC50 [2] was 10000 to 20000 nM.
In the case of `CC(C)c1cc(NC(=O)NS(=O)(=O)N(c2cnn(C)c2)C2CCCN(C)C2)c(C(C)C)s1` (stereo not shown) [Compound 11, 3-[2,5-Bis(propan-2-yl)thiophen-3-yl]-1-[(1-methyl-1H-pyrazol-4-yl)(1-methyl-piperidin-3-yl)sulfamoyl]urea], the IC50 [1] is reported as under 100 nM and the IC50 [2] is reported as under 1000 nM.
`Cc1sc2ccccc2c1NC(=O)NS(=O)(=O)N(c1cnn(C)c1)C1CCCN(C)C1` (stereo not shown) [Compound 12, 3-(2-Methyl-1-benzothiophen-3-yl)-1-[(1-methyl-1H-pyrazol-4-yl)(1-methyl-piperidin-3-yl)sulfamoyl]urea] was tested, and the IC50 [1] was 500 to 1000 nM and the IC50 [2] was 1000 to 3000 nM.
`CCc1cc(NC(=O)NS(=O)(=O)N(c2cnn(C)c2)C2CCCN(C)C2)c(CC)s1` (stereo not shown) [Compound 13, 3-(2,5-Diethylthiophen-3-yl)-1-[(1-methyl-1H-pyrazol-4-yl)(1-methylpiperidin-3-yl)sulfamoyl]urea] showed an IC50 [1] of under 100 nM and an IC50 [2] of under 1000 nM.
With `CCc1csc(CC)c1NC(=O)NS(=O)(=O)N(c1cnn(C)c1)C1CCCN(C)C1` (stereo not shown) [Compound 14, 3-(2,4-Diethylthiophen-3-yl)-1-[(1-methyl-1H-pyrazol-4-yl)(1-methylpiperidin-3-yl)sulfamoyl]urea] the IC50 [1] was under 100 nM and the IC50 [2] was 1000 to 3000 nM.
For `Cc1sc(C)c(NC(=O)NS(=O)(=O)N(c2cnn(C)c2)C2CCCN(C)C2)c1C` (stereo not shown) [Compound 15, 1-[(1-Methyl-1H-pyrazol-4-yl)(1-methylpiperidin-3-yl)sulfamoyl]-3-(2,4,5-trimethylthiophen-3-yl)urea], the IC50 [1] was 500 to 1000 nM and the IC50 [2] was over 20000 nM.
`CC(C)c1csc(C(C)C)c1NC(=O)NS(=O)(=O)N(c1cnn(C)c1)C1CCCN(C)C1` (stereo not shown) [Compound 16, 3-[2,4-Bis(propan-2-yl)thiophen-3-yl]-1-[(1-methyl-1H-pyrazol-4-yl)(1-methyl-piperidin-3-yl)sulfamoyl]urea] gave an IC50 [1] of 100 to 500 nM and an IC50 [2] of 1000 to 3000 nM.
Molecule `CC(C)c1cc(NC(=O)NS(=O)(=O)N(CCN(C)C)c2cnn(C)c2)c(C(C)C)s1` [Compound 18, 3-[2,5-Bis(propan-2-yl)thiophen-3-yl]-1-{[2-(dimethylamino)ethyl](1-methyl-1H-pyrazol-4-yl)sulfamoyl}urea] has an IC50 [1] of 100 to 500 nM and an IC50 [2] of 1000 to 3000 nM.
`CCc1cc(NC(=O)NS(=O)(=O)N(CCN(C)C)c2cnn(C)c2)c(CC)s1` [Compound 19, 3-(2,5-Diethylthiophen-3-yl)-1-{[2-(dimethylamino)ethyl](1-methyl-1H-pyrazol-4-yl)sulfamoyl}urea] was tested, and the IC50 [1] was 100 to 500 nM and the IC50 [2] was 1000 to 3000 nM.
`CCc1cc(NC(=O)NS(=O)(=O)N(c2cnn(C)c2)C2CCCN(C)C2)c(CC)o1` (stereo not shown) [Compound 28, 3-(2,5-Diethylfuran-3-yl)-1-[(1-methyl-1H-pyrazol-4-yl)(1-methylpiperidin-3-yl)sulfamoyl]urea] was tested, and the IC50 [1] was 100 to 500 nM and the IC50 [2] was 1000 to 3000 nM.
With `CCc1cc(CC)c(NC(=O)NS(=O)(=O)N(c2cnn(C)c2)C2CCCN(C)C2)s1` (stereo not shown) [Compound 29, 3-(3,5-Diethylthiophen-2-yl)-1-[(1-methyl-1H-pyrazol-4-yl)(1-methylpiperidin-3-yl)sulfamoyl]urea] the IC50 [1] was 100 to 500 nM and the IC50 [2] was 1000 to 3000 nM.
In the case of `Cc1sc2c(c1NC(=O)NS(=O)(=O)N(c1cnn(C)c1)C1CCCN(C)C1)CCC2` (stereo not shown) [Compound 32, 1-[(1-Methyl-1H-pyrazol-4-yl)(1-methylpiperidin-3-yl)sulfamoyl]-3-{2-methyl-4H,5H,6H-cyclopenta[b]thiophen-3-yl}urea], the IC50 [1] is reported as 100 to 500 nM and the IC50 [2] is reported as under 1000 nM.
With `CC(C)c1sc(C2CC2)cc1NC(=O)NS(=O)(=O)N(c1cnn(C)c1)C1CCCN(C)C1` (stereo not shown) [Compound 37, 3-[5-Cyclopropyl-2-(propan-2-yl)thiophen-3-yl]-1-[(1-methyl-1H-pyrazol-4-yl)(1-methylpiperidin-3-yl)sulfamoyl]urea] the IC50 [1] was under 100 nM and the IC50 [2] was 1000 to 3000 nM.
`CC(C)c1cc(NC(=O)NS(=O)(=O)N(c2cnn(C)c2)C2CCCN(C)C2)c(C2CC2)s1` (stereo not shown) [Compound 38, 3-[2-Cyclopropyl-5-(propan-2-yl)thiophen-3-yl]-1-[(1-methyl-1H-pyrazol-4-yl)(1-methylpiperidin-3-yl)sulfamoyl]urea] showed an IC50 [1] of under 100 nM and an IC50 [2] of 1000 to 3000 nM.
`CC(C)c1cc(NC(=O)NS(=O)(=O)N(c2cnn(C)c2)C2CCN(C)CC2)c(C(C)C)s1` [Compound 43, 3-[2,5-Bis(propan-2-yl)thiophen-3-yl]-1-[(1-methyl-1H-pyrazol-4-yl)(1-methyl-piperidin-4-yl)sulfamoyl]urea] was tested, and the IC50 [1] was under 100 nM and the IC50 [2] was under 1000 nM.
`CC(C)c1cc(NC(=O)NS(=O)(=O)N(c2cnn(C)c2)C2CCCN(C)C2)c(Cl)s1` (stereo not shown) [Compound 50, 3-[2-Chloro-5-(propan-2-yl)thiophen-3-yl]-1-[(1-methyl-1H-pyrazol-4-yl)(1-methylpiperidin-3-yl)sulfamoyl]urea] showed an IC50 [1] of 500 to 1000 nM and an IC50 [2] of 1000 to 3000 nM.
`CC(C)c1cc(C(C)C)c(NC(=O)NS(=O)(=O)N(c2cnn(C)c2)C2CCCN(C)C2)s1` (stereo not shown) [Compound 52, 3-[3,5-Bis(propan-2-yl)thiophen-2-yl]-1-[(1-methyl-1H-pyrazol-4-yl)(1-methyl-piperidin-3-yl)sulfamoyl]urea] gave an IC50 [1] of under 100 nM and an IC50 [2] of 1000 to 3000 nM.
In the case of `CC(C)c1cc(NC(=O)NS(=O)(=O)N(C[C@@H]2C[C@@H](F)CN2C)c2cnn(C)c2)c(C(C)C)s1` [Compound 53], the IC50 [1] is reported as under 100 nM and the IC50 [2] is reported as 1000 to 3000 nM.
In the case of `CC(C)c1cc(NC(=O)NS(=O)(=O)N(c2cnn(C)c2)[C@@H]2CCCN(C)C2)c(C(C)C)s1` [Compound 54, 3-[2,5-Bis(propan-2-yl)thiophen-3-yl]-1-[(1-methyl-1H-pyrazol-4-yl)[(3R)-1-methylpiperidin-3-yl]sulfamoyl]urea], the IC50 [1] is reported as under 100 nM and the IC50 [2] is reported as under 1000 nM.
`CC(C)c1cc(NC(=O)NS(=O)(=O)N(c2cnn(C(C)C)c2)[C@@H]2CCCN(C)C2)c(C(C)C)s1` [Compound 55, 3-[2,5-Bis(propan-2-yl)thiophen-3-yl]-1-{[(3R)-1-methylpiperidin-3-yl][1-(propan-2-yl)-1H-pyrazol-4-yl]sulfamoyl}urea] gave an IC50 [1] of under 100 nM and an IC50 [2] of under 1000 nM.
`CC(C)c1cc(NC(=O)NS(=O)(=O)N(c2cnn(C)c2)[C@H]2CCCN(C)C2)c(C(C)C)s1` [Compound 56, 3-[2,5-Bis(propan-2-yl)thiophen-3-yl]-1-[(1-methyl-1H-pyrazol-4-yl)[(3S)-1-methylpiperidin-3-yl]sulfamoyl]urea] was tested, and the IC50 [1] was under 100 nM and the IC50 [2] was under 1000 nM.
`Cc1sc(C(C)C)cc1NC(=O)NS(=O)(=O)N(c1cnn(C)c1)[C@@H]1CCCN(C)C1` [Compound 57, 1-[(1-Methyl-1H-pyrazol-4-yl)[(3R)-1-methylpiperidin-3-yl]sulfamoyl]-3-[2-methyl-5-(propan-2-yl)thiophen-3-yl]urea] was tested, and the IC50 [1] was 100 to 500 nM and the IC50 [2] was 1000 to 3000 nM.
With `CCc1sc(C(C)C)cc1NC(=O)NS(=O)(=O)N(c1cnn(C)c1)[C@@H]1CCCN(C)C1` [Compound 58, 3-[2-Ethyl-5-(propan-2-yl)thiophen-3-yl]-1-[(1-methyl-1H-pyrazol-4-yl)[(3R)-1-methylpiperidin-3-yl]sulfamoyl]urea] the IC50 [1] was under 100 nM and the IC50 [2] was under 1000 nM.
`CC(C)c1cc(NC(=O)NS(=O)(=O)N(c2cnn(C3CC3)c2)[C@@H]2CCCN(C)C2)c(C(C)C)s1` [Compound 59, 3-[2,5-Bis(propan-2-yl)thiophen-3-yl]-1-[(1-cyclopropyl-1H-pyrazol-4-yl)-[(3R)-1-methylpiperidin-3-yl]sulfamoyl]urea] showed an IC50 [1] of under 100 nM and an IC50 [2] of 1000 to 3000 nM.
